We go through 14 compounds from patent US11046687B2, “Polycyclic amide compound, preparation process and use thereof” (HEBEI GRANDIOS PHARMA CO., LTD., priority 2018, dated 2021).

For experiment [1], the system named is breast cancer cells (MDA). Nature of the experiment: MTT assay, in vitro growth inhibition, MDA cells. It counts as cell-based. Further details: in vitro growth inhibition rate, MDA: unit not given here. The settings on record: test drug concentration 4 μg/mL, 37° C., 3 days; for inhibition at 4 µg/mL: 72 h, read-out: in vitro growth inhibition rate, MDA. How it is done: (§1) The in vitro cytotoxicity of the compounds of the present invention was tested with reference to the experimental methods reported in the literature (Liu Yanqin et al., Organic Chemistry, 2002, 22(4), 279-282). The human oral epithelial cancer cells (KB), human lung cancer cells (A-549), and breast cancer cells (MDA) were used to test the in vitro growth inhibition rate of the compounds by MTT assay. Cells were cultured at 37° C. for 3 days under a test drug concentration of 4 μg/mL.
On the technique in general: Formazan colour is commonly taken as a measure of viable cells.

The test system of experiment [2] is human lung cancer cells (A-549). Nature of the experiment: MTT assay, in vitro growth inhibition, A-549 cells. Also noted: in vitro growth inhibition rate, A549: unit not given here. The conditions noted are these: test drug concentration 4 μg/mL, 37° C., 3 days; for inhibition at 4 µg/mL: Homo sapiens, A549, 72 h, read-out: in vitro growth inhibition rate, A549. The format is cell-based. How it is done: as §1

Regarding `CNC(C)CNC(=O)c1cccc2cc3ccccc3nc12` (stereo not shown) [Compound 5], the “in vitro growth inhibition rate, MDA” value in experiment [1] was −5.1. In addition, in experiment [2], the “in vitro growth inhibition rate, A549” value is −11.
With `CCNC(C)CNC(=O)c1cccc2cc3ccccc3nc12` (stereo not shown) [Compound 6], the “in vitro growth inhibition rate, MDA” value in experiment [1] is −1.5. The “in vitro growth inhibition rate, A549” value in experiment [2] is reported as −5.
As to `CCN(C)C(C)CNC(=O)c1cccc2cc3ccccc3nc12` (stereo not shown) [Compound 7], the “in vitro growth inhibition rate, MDA” value in experiment [1] is listed as 4.4. The “in vitro growth inhibition rate, A549” value in experiment [2] is reported as −5.8.
As to `CCN(CC)C(C)CNC(=O)c1cccc2cc3ccccc3nc12` (stereo not shown) [Compound 8], the “in vitro growth inhibition rate, MDA” value in experiment [1] is −4.7. Moreover, the “in vitro growth inhibition rate, A549” value in experiment [2] was −6.6.
With `CC(C)N(C)C(C)CNC(=O)c1cccc2cc3ccccc3nc12` (stereo not shown) [Compound 10, N-[2-(N-isopropylmethylamino)propyl]acridine-4-carboxamide], the inhibition at 4 µg/mL is 1.2% in experiment [1] and 3.3% in experiment [2].
`CCNCC(C)NC(=O)c1cccc2cc3ccccc3nc12` (stereo not shown) [Compound 22]: in experiment [1], the “in vitro growth inhibition rate, MDA” value is recorded as 2.5. The “in vitro growth inhibition rate, A549” value in experiment [2] turned out to be 3.1.
Consider `Cc1cccc2nc3cccc(C(=O)NCC(C)N(C)C(C)C)c3nc12` (stereo not shown) [Compound 50, N-[2-(N-isopropylmethylamino)propyl]-1-methylphenazine-9-carboxamide], for which the inhibition at 4 µg/mL in experiment [1] is -7.2%; in experiment [2], -7.8%.
Consider `Cc1cccc2nc3cccc(C(=O)NC(C)CN(C)C(C)C)c3nc12` (stereo not shown) [Compound 66, N-[1-methyl-2-(N-isopropylmethylamino)ethyl]-1-methylphenazine-9-carboxamide], for which the figures for the inhibition at 4 µg/mL in experiment [1] and in experiment [2] were 1.9% and 1.2%, respectively.
As for `CNCCNC(=O)c1cn(-c2ccc(F)cc2)c(=O)c2cc3cccc(C)c3nc12` [Compound 85], the “in vitro growth inhibition rate, MDA” value in experiment [1] is recorded as −1.8. Further, the “in vitro growth inhibition rate, A549” value in experiment [2] was −3.4.
As for `CCN(C)CCNC(=O)c1cn(-c2ccc(F)cc2)c(=O)c2cc3cccc(C)c3nc12` [Compound 86], in experiment [1], the “in vitro growth inhibition rate, MDA” value was determined as 14. Moreover, the “in vitro growth inhibition rate, A549” value in experiment [2] is on record as 9.8.
The like results for `CCNCCNC(=O)c1cn(C)c(=O)c2cc3cccc(C)c3nc12` [Compound 87] were, in that order, 3.9 and 5.
With `CCN(C)CCNC(=O)c1cn(C)c(=O)c2cc3cccc(C)c3nc12` [Compound 88], in experiment [1], the “in vitro growth inhibition rate, MDA” value came to 1.4. For the same compound, the “in vitro growth inhibition rate, A549” value in experiment [2] turned out to be 1.6.
Regarding `CCN(C)CCNC(=O)c1cn(CC)c(=O)c2cc3cccc(C)c3nc12` [Compound 90, N-[2-(N-ethylmethylamino)ethyl]-2-ethyl-6-methyl-1-oxo-1,2-dihydrobenzo[b][1,6]naphthyridine-4-carboxamide], the values for the inhibition at 4 µg/mL in experiment [1] and in experiment [2] were 6.4% and 3.5%, respectively.
As for `CN(C)CCNC(=O)c1cccc2cc3ccccc3nc12` [DACA (1), reference compound], the values for the inhibition at 4 µg/mL in experiment [1] and in experiment [2] were 2% and 1.7%, respectively.

Broadly, the inhibition is the drop in the measured response relative to a control, in per cent.
